This is an account of results in patent US8685658B2, “Compositions and methods for the treatment of diseases associated with aberrant cilia assembly and regulation” (Fox Chase Cancer Center, priority 2006, dated 2014).

One series deals with FGFR1 (Homo sapiens, UniProt P11362). The settings on record: cited from earlier work.
The next series deals with AurB (Homo sapiens, UniProt Q96GD4). The settings on record: cited from earlier work.
In a further series the target is T1, AurA (Homo sapiens, UniProt O14965).
T1 construct: endogenous AurA immunoprecipitated from mammalian cells; endogenous in cells; host or cells: hTERT-RPE1
T1 sequence (O14965 1-403): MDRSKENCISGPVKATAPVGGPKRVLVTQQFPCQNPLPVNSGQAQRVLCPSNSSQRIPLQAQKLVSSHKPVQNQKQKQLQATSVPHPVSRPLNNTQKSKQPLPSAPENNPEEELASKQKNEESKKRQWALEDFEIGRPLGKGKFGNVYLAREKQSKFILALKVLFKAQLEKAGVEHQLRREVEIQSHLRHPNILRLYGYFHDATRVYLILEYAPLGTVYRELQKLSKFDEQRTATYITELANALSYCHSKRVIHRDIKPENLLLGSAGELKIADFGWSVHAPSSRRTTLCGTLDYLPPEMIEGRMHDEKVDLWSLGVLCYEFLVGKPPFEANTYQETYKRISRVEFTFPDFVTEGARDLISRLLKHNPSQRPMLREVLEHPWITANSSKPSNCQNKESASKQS
The experiment in a line: AurA activation and HEF1 phosphorylation in serum-stimulated hTERT-RPE1 cells (Western blot). The settings on record: vs DMSO, 2 and 24 hour time points after serum. The class given is cell-based. As to the method: For microinjection, recombinant glutathione-S-transferase (GST), GST fused AurA mutants T288A and D274N) produced from BL21 (DE3) bacteria were purified using the MicroSpin GST Purification Module (Amersham Biotech.). Purified recombinant AurA was purchased from Upstate; this AurA was pre-activated based on incubation with ATP. […] To prepare lysates for Western blotting and IP, mammalian cells were disrupted by M-PER lysis buffer (Pierce) supplemented with EDTA-free protease inhibitor cocktail (Roche). Lysates used for IP were incubated overnight with antibody at 4° C., subsequently incubated for 2 hours with protein A/G-sepharose (Pierce), washed, and resolved by SDS-PAGE. Western blotting was performed using standard procedures and proteins visualized using the West-Pico system (Pierce). Antibodies used included mouse monoclonal antibody (mAb) anti-HEF1 2G9 (Pugacheva and Golemis, 2005), anti-α-tubulin mAb (Sigma), anti-AurA (BD Bioscience) for Western blotting, anti-AurA rabbit polyclonal (Cell Signaling) for IP, anti-Phospho-AurA/T288 (BioLegend), anti-Phospho-AurA/T288 (Cell Signaling), anti-HDAC6 rabbit polyclonal (Upstate; 1:5000), anti-HDAC2 rabbit polyclonal (Invitrogen) and mAb anti-β-actin (AC15, Sigma), anti-IFT88 and anti-IFT20. Secondary horseradish peroxidase (HRP)-conjugated antibodies were from Amersham Biotech. […]
On the technique in general: A western blot detects proteins with antibodies after separation by electrophoresis.

Series [1] concerns hTERT-RPE1 cells. The experiment in a line: serum-induced ciliary disassembly in ciliated hTERT-RPE1 cells. The class given is cell-based. As to the method:
hTERT-RPE1 cells were grown in DMEM with 10% fetal bovine serum (FBS). For analysis of ciliary disassembly, cells were plated at 30% confluence in plates containing glass cover slips, and starved for 48 hours (in Opti-MEM or regular DMEM, without added serum) to induce cilia formation, followed by treatments described hereinbelow. For siRNA treatment, cells were initially plated in DMEM/10% FBS in plates containing cover slips, and 12 hours later siRNA transfection was performed in Opti-MEM with Oligofectamine (Invitrogen) according to manufacturer recommendations, and fixed 48 hours after transfection, following treatments indicated in Results. The remaining cells on plate were lysed, then either directly analyzed by Western blot analysis, or used for immunoprecipitation (IP)-kinase reaction to measure AurA activity.
Cells were fixed with 4% paraformaldehyde (10 min) then methanol (5 min), permeabilized with 1% Triton-X100 in PBS, blocked in 1×PBS, 3% BSA, and incubated with antibodies using standard protocols. Primary antibodies included rabbit polyclonal anti-Aurora A and anti-phospho-AuroraA/T288, (Cell Signaling), mouse mAb anti-HEF1 (14A11), polyclonal anti-γ-tubulin (Sigma), anti-α-tubulin mAb (Sigma), anti-acetylated α-tubulin mAb (clone 6-11B-1, Sigma, and clone K(Ac)40 Biomol), anti-IFT88 and anti-IFT20 (gifts of G. Pazour), mouse anti-glutamylated tubulin (Sigma), and anti-HDAC6 (Upstate). Secondary antibodies labeled with Alexa-488, Alexa-568, and Alexa-633, and TOTO-3 dye to stain DNA, were from Molecular Probes/Invitrogen. DNA was co-stained in some experiments by propidium iodine (Sigma) or Draq5 (Alexis), Confocal microscopy was performed using a Radiance 2000 laser scanning confocal microscope ((Carl Zeiss, Thornwood, N.Y.) coupled to a Nikon Eclipse E800 upright microscope (Nikon). Statistical analysis of data by one-way ANOVA was performed using GraphPad Instat 3.0 (San Diego, Calif.).

Another series concerns the target T2, AurA-HDAC6 (Homo sapiens, UniProt O14965).
T2 construct: endogenous in cells; host or cells: hTERT-RPE1
T2 sequence (O14965 1-403): T1 sequence (O14965 1-403)
T2 sequence (Q9UBN7 1-1215 partner): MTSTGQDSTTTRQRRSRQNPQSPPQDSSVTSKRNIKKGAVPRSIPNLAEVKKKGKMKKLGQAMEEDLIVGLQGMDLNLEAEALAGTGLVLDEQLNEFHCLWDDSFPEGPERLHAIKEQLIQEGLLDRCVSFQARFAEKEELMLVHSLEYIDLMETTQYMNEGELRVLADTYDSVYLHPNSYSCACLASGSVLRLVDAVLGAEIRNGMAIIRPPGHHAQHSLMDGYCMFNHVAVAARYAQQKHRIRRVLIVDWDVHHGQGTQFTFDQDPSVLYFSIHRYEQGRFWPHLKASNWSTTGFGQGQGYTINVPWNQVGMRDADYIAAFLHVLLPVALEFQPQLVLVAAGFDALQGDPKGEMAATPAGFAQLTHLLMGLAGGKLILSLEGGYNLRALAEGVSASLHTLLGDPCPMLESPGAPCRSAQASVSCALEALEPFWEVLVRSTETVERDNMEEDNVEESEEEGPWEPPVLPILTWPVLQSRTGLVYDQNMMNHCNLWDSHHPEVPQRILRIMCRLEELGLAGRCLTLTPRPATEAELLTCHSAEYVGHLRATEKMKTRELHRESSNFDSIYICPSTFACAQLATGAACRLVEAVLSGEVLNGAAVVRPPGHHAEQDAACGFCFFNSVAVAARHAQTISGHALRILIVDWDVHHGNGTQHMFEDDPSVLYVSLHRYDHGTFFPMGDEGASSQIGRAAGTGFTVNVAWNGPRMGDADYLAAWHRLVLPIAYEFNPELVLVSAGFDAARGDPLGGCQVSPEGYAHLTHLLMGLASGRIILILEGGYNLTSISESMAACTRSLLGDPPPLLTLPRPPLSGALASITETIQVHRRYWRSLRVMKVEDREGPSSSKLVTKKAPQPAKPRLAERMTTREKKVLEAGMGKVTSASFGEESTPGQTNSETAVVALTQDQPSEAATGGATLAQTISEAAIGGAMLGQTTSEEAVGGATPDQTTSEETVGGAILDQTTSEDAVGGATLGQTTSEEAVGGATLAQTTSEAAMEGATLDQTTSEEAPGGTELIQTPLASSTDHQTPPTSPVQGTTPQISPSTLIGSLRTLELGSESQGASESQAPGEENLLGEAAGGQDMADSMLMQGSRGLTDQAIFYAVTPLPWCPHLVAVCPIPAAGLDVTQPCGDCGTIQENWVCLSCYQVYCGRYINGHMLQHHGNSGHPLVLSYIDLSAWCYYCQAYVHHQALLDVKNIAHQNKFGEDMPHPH
The experiment in a line: AurA-HDAC6 coimmunoprecipitation from hTERT-RPE1 cells. The format is cell-based. To be noted: pre-treatment of cells with inhibitor. As to the method:
(§1) For microinjection, recombinant glutathione-S-transferase (GST), GST fused AurA mutants T288A and D274N) produced from BL21 (DE3) bacteria were purified using the MicroSpin GST Purification Module (Amersham Biotech.). Purified recombinant AurA was purchased from Upstate; this AurA was pre-activated based on incubation with ATP. […] To prepare lysates for Western blotting and IP, mammalian cells were disrupted by M-PER lysis buffer (Pierce) supplemented with EDTA-free protease inhibitor cocktail (Roche). Lysates used for IP were incubated overnight with antibody at 4° C., subsequently incubated for 2 hours with protein A/G-sepharose (Pierce), washed, and resolved by SDS-PAGE. Western blotting was performed using standard procedures and proteins visualized using the West-Pico system (Pierce). Antibodies used included mouse monoclonal antibody (mAb) anti-HEF1 2G9 (Pugacheva and Golemis, 2005), anti-α-tubulin mAb (Sigma), anti-AurA (BD Bioscience) for Western blotting, anti-AurA rabbit polyclonal (Cell Signaling) for IP, anti-Phospho-AurA/T288 (BioLegend), anti-Phospho-AurA/T288 (Cell Signaling), anti-HDAC6 rabbit polyclonal (Upstate; 1:5000), anti-HDAC2 rabbit polyclonal (Invitrogen) and mAb anti-β-actin (AC15, Sigma), anti-IFT88 and anti-IFT20. Secondary horseradish peroxidase (HRP)-conjugated antibodies were from Amersham Biotech.

Series [2] concerns hTERT-RPE1 cells. In words: growth factor-induced disassembly of cilia in hTERT-RPE1 cells. The class given is cell-based. The settings on record: 10 ng/ml. As to the method: FIG. 4. Growth factor-induced disassembly of cilia in hTERT-RPE1 cells. A. Time course of disassembly of cilia in cells treated with EGF, PDGF, and TGF-β. […] B. Western blot indicating T288-phosphorylated and total AurA in cells treated with PDGF or EGF, at times indicated after treatment. C. Immunofluorescence depicting cilia (red, acetylated a α-tubulin) and phospho-AurA (green) staining at the basal body at 2 hours after stimulation with PDGF, EGF, or serum. Phosphorylated AurA is apparent in PDGF- and serum-treated cells, but not EGF-treated cells: further, many well-formed cilia are apparent in EGF-treated cells (marked with asterisks) in contrast to other conditions. Scale bar represents […].
hTERT-RPE1 cells were grown in DMEM with 10% fetal bovine serum (FBS). For analysis of ciliary disassembly, cells were plated at 30% confluence in plates containing glass cover slips, and starved for 48 hours (in Opti-MEM or regular DMEM, without added serum) to induce cilia formation, followed by treatments described hereinbelow. […] The remaining cells on plate were lysed, then either directly analyzed by Western blot analysis, or used for immunoprecipitation (IP)-kinase reaction to measure AurA activity.

The test system of series [3] is hTERT-RPE1 cells. The experiment in a line: loss of cilia after microinjection of AurA proteins into ciliated hTERT-RPE1 cells. The class given is cell-based. To be noted: 0.05 μM protein microinjected, low serum medium, as soon as cells could be fixed. How it is done: as §1
Microinjections were performed on a Nikon TE300 Microscope (Nikon, Melville, N.Y.) that was equipped with an Eppendorf Transjector 5246 semi-automatic microinjector and micromanipulator (Eppendorf, Westbury, N.Y.). […] Proteins were pre-filtered through a 0.2-μm Milliopore membrane and mixed with Dextran Green488 (Molecular Probes) to mark injected cells. Injected cells were incubated at 37° C. before fixation. Typically, 150 cells were microinjected in each of 3 experiments.

Series [4] deals with recombinant glutathione-S-transferase (GST).
Series [5] deals with T3, in vitro translated and immunoprecipitated HDAC6, Q9UBN7.
T3 chain: T2 sequence (Q9UBN7 1-1215 partner)

Sequence of AurB (Q96GD4 whole entry): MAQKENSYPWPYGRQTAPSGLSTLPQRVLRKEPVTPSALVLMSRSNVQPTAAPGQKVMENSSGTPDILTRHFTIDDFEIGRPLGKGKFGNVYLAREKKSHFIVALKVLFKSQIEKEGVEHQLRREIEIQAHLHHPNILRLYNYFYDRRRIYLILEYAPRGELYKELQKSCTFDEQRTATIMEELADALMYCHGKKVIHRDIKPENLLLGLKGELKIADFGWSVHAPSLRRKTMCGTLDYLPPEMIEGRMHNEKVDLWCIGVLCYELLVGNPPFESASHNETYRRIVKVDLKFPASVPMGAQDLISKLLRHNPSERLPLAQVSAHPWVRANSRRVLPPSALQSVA
Sequence of FGFR1 (P11362 22-822, species assumed): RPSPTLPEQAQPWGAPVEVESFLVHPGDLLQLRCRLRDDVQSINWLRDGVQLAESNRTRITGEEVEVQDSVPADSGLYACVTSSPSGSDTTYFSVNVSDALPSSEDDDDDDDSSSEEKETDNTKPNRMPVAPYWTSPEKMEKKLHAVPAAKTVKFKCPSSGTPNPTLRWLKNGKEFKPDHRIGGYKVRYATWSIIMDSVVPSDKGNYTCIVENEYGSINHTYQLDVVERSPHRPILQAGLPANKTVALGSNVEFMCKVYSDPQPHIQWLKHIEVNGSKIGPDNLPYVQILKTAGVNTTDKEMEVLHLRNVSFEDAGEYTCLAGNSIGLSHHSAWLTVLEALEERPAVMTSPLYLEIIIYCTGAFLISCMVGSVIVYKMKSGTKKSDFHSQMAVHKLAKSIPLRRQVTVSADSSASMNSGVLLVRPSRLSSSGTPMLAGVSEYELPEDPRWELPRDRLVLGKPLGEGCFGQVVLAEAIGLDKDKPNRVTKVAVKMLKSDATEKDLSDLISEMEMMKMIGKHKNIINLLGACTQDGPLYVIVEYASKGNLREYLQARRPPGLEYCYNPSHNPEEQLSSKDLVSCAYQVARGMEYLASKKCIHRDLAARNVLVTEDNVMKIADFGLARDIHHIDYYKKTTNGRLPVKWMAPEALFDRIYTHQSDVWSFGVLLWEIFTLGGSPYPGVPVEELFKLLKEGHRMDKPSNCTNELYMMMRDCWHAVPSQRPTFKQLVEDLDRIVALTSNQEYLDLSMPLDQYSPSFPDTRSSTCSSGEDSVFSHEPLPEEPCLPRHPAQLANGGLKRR

In general, IC50 refers to the concentration that inhibits the measured activity by half. As for `CCc1cccc(CC)c1NC(=O)N1Cc2n[nH]c(NC(=O)c3ccc(N4CCN(C)CC4)cc3)c2C1` [PHA-680632], on FGFR1, the IC50 was 390 nM. In addition, at AurB, the IC50 is 185 nM. Moreover, at AurA, the “HEF1 phosphorylation (115 kDa form)” value is on record as “blocks” and the “appearance of T288-phospho-AurA” value was “blocks appearance”. For the same molecule, the “second wave of ciliary disassembly, at the time of mitosis” value in the series with hTERT-RPE1 cells [1] (500 nM, 18-24 hours after serum) is “completely eliminated”. Besides, in the series with hTERT-RPE1 cells [1] (cells pre-treated for 3 hours with 500 nM, tracked 24 hours post serum), the “disassembly of cilia after serum stimulation” value is given as “strongly reduced”. The AurA-HDAC6 coimmunoprecipitation entry at AurA-HDAC6 was “not eliminated”.
For PDGF, the “ciliary disassembly response to growth factor” value in the series on hTERT-RPE1 cells [2] was “partial response”.

B1: recombinant activated AurA (Upstate) (protein)
chain: T1 sequence (O14965 1-403)
For the molecule B1, the “injected cells lacking cilia” value with hTERT-RPE1 cells [3] is “more than 80%”. The “in vitro kinase assay (32P autoradiography)” value in series [4] is listed as “AurA phosphorylated HDAC6, but not HDAC2 or the GST negative control”. Also, in series [5], the “in vitro tubulin deacetylation assay” value is reported as “AurA-phosphorylated HDAC6 was much more potent than unphosphorylated HDAC6 in deacetylating α-tubulin”.
